Experimental findings from US20210387983A1, “CRYSTALLINE ALK5 INHIBITORS AND USES THEREOF” (THERAVANCE BIOPHARMA R&D IP, LLC, priority 2020, published 2021) are described below.

The structures appear in SMILES notation. Bounds are passed on as bounds.

A short description of series [1]: In vitro human liver microsome intrinsic clearance (HLM Clint). Format: in vitro ADME. To be noted: liver microsomes, pH 7.4, 0.1 μM test compound, 0.1 mg/mL protein, 1 mM NADPH, 37° C. How it is done:
Liver microsomes were used for in vitro determination of hepatic clearance of the compound of Formula I. A microsomal incubation cofactor solution was prepared with 100 mM potassium phosphate buffered to pH 7.4 (BD Biosciences, Woburn, Mass.) supplemented with 2 mM NADPH (Sigma-Aldrich, St. Louis, Mo.). 10 mM DMSO stocks of test compound were diluted and spiked into the cofactor solution to yield a 0.2 μM concentration (0.02% v/v DMSO). Aliquots of frozen human liver microsomes (Bioreclamation IVT, Baltimore Md.) were thawed and diluted into 100 mM potassium phosphate buffer to yield microsomal protein concentrations of 0.2 mg/mL. Cofactor/drug and microsomal solutions were pre-warmed separately for 4 minutes in a water bath held at 37° C. Incubations (n=1) were started by the combination of equal volumes of cofactor/drug solution with microsomal solution. The final concentration of test compound was 0.1 μM with a final protein concentration of 0.1 mg/mL and final NADPH concentration of 1 mM. Samples were collected at times 0, 3, 8, 15, 30, and 45 minutes to monitor the disappearance of test compound. At each time point, 50 μL of incubation sample was removed and spiked into 25 μL of water plus 3% formic acid plus Internal Standard for reaction termination. Samples were then injected onto an AB Sciex API 4000 triple quadrupole mass spectrometer for quantitation by LC-MS/MS. […]
On the technique in general: Liver microsomes are a subcellular fraction often used to study metabolism.

A further series has as its system SMAD3 phosphorylation. The series can be described thus: Cardiac PK/PD: systemic target engagement, pSMAD3/tSMAD3 in heart by Meso-Scale Discovery. Format: in vivo, C57bl/6n mice. To be noted: mice, oral aspiration 2 or 4 hours prior to harvest; TGF-β1 i.v. challenge; heart samples. As to the method: C57bl/6n mice were acclimated for at least 3 days before use. On the day of the experiment, animals were grouped into sample sizes of 5-10. Test compounds were pre-treated via oral aspiration (OA; animals are forced to aspirate solution into the lungs by covering their nose). All oral aspirations were performed using a 50 μL dosing volume and accompanied by a vehicle control group (3% glycerol in PBS, pH=4). Following compound OA treatment, the animals were returned to their home cages and monitored. Compound pre-treatment occurred either 2 or 4 hours prior to harvest. One hour prior to harvest, animals were challenged via tail-vein intravenous injection with PBS vehicle or recombinant human TGF-β1 protein (1 μg per animal dissolved in 1 part 4 mM HCl and 2 parts 3% glycerol in PBS). Five minutes prior to harvest, animals were deeply anesthetized under isoflurane and euthanized via cervical dislocation. Plasma, left lung lobes and whole hearts were collected during harvest.
Blood plasma was harvested as described above in the Lung PK/PD experiment. Whole hearts were processed in the same manners as left lung lobes in the Lung PK/PD experiment. Left lung lobes were homogenized in 500 μL of water and submitted for BA Analysis.
Heart samples were processed using MSD in the same manner as the left lung lobes above. […] Plasma, lung and heart drug concentrations were quantified.

The subject of series [2] is intestinal fibrosis in an adoptive T-cell transfer model of colitis. Nature of the series: Efficacy study in adoptive T-cell transfer model of colitis. Format: in vivo, CB17 SCID mice. The settings on record: oral gavage once diarrhea and 10% body weight decrease observed; sacrifice 45 days after induction. How it is done: The compound of Formula I is expected to slow, halt or reverse the progression of intestinal fibrosis in an adoptive T-cell transfer model of colitis. Six- to 8-week old female CB17 SCID mice are tagged and weighed, then administered CD4^+ CD25^− CD62L^+ naïve T cells isolated from the spleens of Balb/C mice (IP; 1×10^6 cells) to induce colitis. Once diarrhea and a 10% or greater decrease in body weight are observed (typically around week 2), mice are treated with either vehicle control or the compound of Formula I at an appropriate amount and frequency via oral gavage (e.g., once daily). Animals are sacrificed 45 days after induction of colitis, then distal, mid and proximal sections of the colon harvested for histologic analysis, RNA extraction and cytokine measurement.

What is called microsomal CLint is the rate of metabolic loss divided by the concentration. In the case of `C[C@@H]1CN(CCNc2cnc3ccc(-c4nc[nH]c4-c4cc(Cl)ccc4F)nc3c2)C[C@H](C)N1` [compound of Formula I, 6-(5-(5-chloro-2-fluorophenyl)-1H-imidazol-4-yl)-N-(2-((3S,5R)-3,5-dimethylpiperazin-1-yl)ethyl)-1,5-naphthyridin-3-amine], the microsomal CLint at 0.1 μM in series [1] was above 250 µL/min/mg. For the same compound, the “systemic target engagement, as measured by SMAD3 phosphorylation inhibition” value in the series with SMAD3 phosphorylation was “minimal target engagement systemically”. Besides, the intestinal fibrosis result in series [2] was “slow, halt or reverse intestinal fibrosis”.
